In assay [1] the test system is cigarette smoke-exposed COPD model. Briefly: Cigarette smoke-exposed COPD model. The format is in vivo, C57BL/6J mice. From the text:
The effect of pemafibrate was examined with reference to a procedure described in a literature ([…], et al.: Autophagy (2019), 15(3): 510)). That is, C57BL/6J mice were exposed to cigarette smoke with an exposure and inhalation system for small animals five times a week for 6 months. The mice were classified into a total of 4 groups as follows: the mice were classified into a normal diet group (Ctrl) and a 0.0003 w/w % pemafibrate mixed feed group (Pema), and the groups were each further classified into a room air group (RA) and a cigarette smoke exposure group (CS). First, a lung after the completion of the administration of pemafibrate was removed from the room air group (RA), and was evaluated for the expression of TFEB by being homogenized. […] Next, a bronchoalveolar lavage fluid was collected and evaluated for its cells. […] In addition, an alveolar diameter was measured and the degree of emphysema was evaluated.

In assay [2] the test system is TFEB expression in cultured human airway epithelial cells (BEAS2B). The assay is described as follows: Induction of TFEB expression in human airway epithelial cell. The note with it: 24 hours. It counts as cell-based. As for the experimental part: The effect of pemafibrate was examined with reference to a procedure described in a literature ([…], et al.: Autophagy (2019), 15(3): 510). That is, cultured human airway epithelial cells (BEAS2B) were cultured in a culture medium supplemented with 10 nM or 100 nM of pemafibrate for 24 hours, and were compared to a control (0 nM).

For assay [3], the system named is p21 expression in human-derived cultured airway epithelial cells (HBEC) with cigarette smoke extract. The assay is described as follows: Action on smoking stimulation-induced cell senescence (p21 expression). The note with it: 24 hours. The format is cell-based. How it is done:
The effect of pemafibrate was examined with reference to a procedure described in a literature (Saito N, et al.: J Immunol (2019), 202: 1428). That is, human-derived cultured airway epithelial cells (HBEC) were cultured in a culture medium supplemented with 10 nM to 100 nM of pemafibrate together with 1% cigarette smoke extract (CSE) for 24 hours, and were compared to a control (0 nM).

A value given as a limit tells only on which side of the number the result lay.

Here are results for one molecule from US20250221965A1, “THERAPEUTIC AGENT FOR RESPIRATORY DISEASE” (THE JIKEI UNIVERSITY, priority 2022, published 2025).

Regarding `CC[C@@H](Oc1cccc(CN(CCCOc2ccc(OC)cc2)c2nc3ccccc3o2)c1)C(=O)O` [pemafibrate, (R)-2-[3-[[N-(benzoxazol-2-yl)-N-3-(4-methoxyphenoxy)propyl]aminomethyl]phenoxy]butyric acid], the “destruction of lung structure (alveolar diameter, degree of emphysema)” value in assay [1] (cigarette smoke exposure (CS) 6 months, 0.0003 w/w % mixed feed, FIG. 5 and 6) was “the destruction of a lung structure due to the cigarette smoke exposure (CS) was suppressed”. Further, the “cell senescence due to cigarette smoke exposure” value in assay [1] (cigarette smoke exposure (CS) 6 months, 0.0003 w/w % mixed feed, FIG. 7) was “the cell senescence due to the cigarette smoke exposure (CS) was suppressed”. For the same molecule, the “expression of TFEB in lung homogenate” value in assay [1] (room air group (RA), 0.0003 w/w % pemafibrate mixed feed, 6 months, FIG. 3) was “an increase in expression of TFEB was observed”. Further, in assay [2] (10 nM or 100 nM pemafibrate, vs control (0 nM), FIG. 1), the “expression of TFEB” value is “increased in a manner dependent on the dose”. Further, in assay [2] (10 nM or 100 nM, vs control, p<0.05), the “ratio of the expression amount of TFEB to the expression amount of ACTB” value is listed as “a significant difference was observed as compared to the control”. In assay [3] (10 nM to 100 nM pemafibrate with 1% CSE, FIG. 2), the “expression of p21 increased by CSE stimulation” value is reported as “suppressed by pemafibrate in a dose-dependent manner”. The “suppressing action on cell senescence” value in assay [3] (1% CSE) is recorded as “had a suppressing action on cell senescence”. The “pemafibrate concentration giving significant difference in ratio of p21 to ACTB expression vs control” value in assay [3] (1% CSE, p<0.05) was at least 20 nM.
